Laboratory results as given in ChEMBL document CHEMBL3046590, “Design and synthesis of some thiazolotriazolyl esters as anti-inflammatory and analgesic agents” (Med Chem Res, 2012).

Assays:
[1] = tested on: Mus musculus; assay: Anti-inflammatory activity in Mus musculus BALB/c (mouse) assessed as carrageenan-induced paw swelling at 100 mg/kg, po administered 1 hr followed by carrageenan challenge measured at 90 min (reference value: 39 +/- 5.6 x 10^-2 mm); assay type: functional
[2] = tested on: Mus musculus; assay: Anti-inflammatory activity in Mus musculus BALB/c (mouse) assessed as carrageenan-induced paw swelling at 50 mg/kg, po administered 1 hr followed by carrageenan challenge measured at 270 min (reference value: 78 +/- 8.4 x 10^-2 mm); assay type: functional
[3] = tested on: Mus musculus; assay: Anti-inflammatory activity in Mus musculus BALB/c (mouse) assessed as carrageenan-induced paw swelling at 100 mg/kg, po administered 1 hr followed by carrageenan challenge measured at 360 min (reference value: 105 +/- 4.5 x 10^-2 mm); assay type: functional
[4] = tested on: Mus musculus; assay: Anti-inflammatory activity in Mus musculus BALB/c (mouse) assessed as carrageenan-induced paw swelling at 100 mg/kg, po administered 1 hr followed by carrageenan challenge measured at 270 min (reference value: 78 +/- 8.4 x 10^-2 mm); assay type: functional
[5] = tested on: Mus musculus; assay: Anti-inflammatory activity in Mus musculus BALB/c (mouse) assessed as carrageenan-induced paw swelling at 50 mg/kg, po administered 1 hr followed by carrageenan challenge measured at 180 min (reference value: 52 +/- 4.6 x 10^-2 mm); assay type: functional
[6] = tested on: Mus musculus; assay: Anti-inflammatory activity in Mus musculus BALB/c (mouse) assessed as inhibition of carrageenan-induced paw swelling at 200 mg/kg, po administered 1 hr followed by carrageenan challenge measured at 90 min relative to control; assay type: functional
[7] = tested on: Mus musculus; assay: Anti-inflammatory activity in Mus musculus BALB/c (mouse) assessed as carrageenan-induced paw swelling at 200 mg/kg, po administered 1 hr followed by carrageenan challenge measured at 90 min (reference value: 39 +/- 5.6 x 10^-2 mm); assay type: functional
[8] = tested on: Mus musculus; assay: Anti-inflammatory activity in Mus musculus BALB/c (mouse) assessed as inhibition of carrageenan-induced paw swelling at 100 mg/kg, po administered 1 hr followed by carrageenan challenge measured at 180 min relative to control; assay type: functional
[9] = tested on: Mus musculus; assay: Toxicity in Mus musculus BALB/c (mouse) assessed as behavioral changes at 50 to 200 mg/kg, po after 72 hr; assay type: organism-based; design: dose 50-200 mg/kg, route oral; settings: in vivo
[10] = tested on: Mus musculus; assay: Anti-inflammatory activity in Mus musculus BALB/c (mouse) assessed as carrageenan-induced paw swelling at 200 mg/kg, po administered 1 hr followed by carrageenan challenge measured at 360 min (reference value: 105 +/- 4.5 x 10^-2 mm); assay type: functional
[11] = tested on: Mus musculus; assay: Anti-inflammatory activity in Mus musculus BALB/c (mouse) assessed as carrageenan-induced paw swelling at 50 mg/kg, po administered 1 hr followed by carrageenan challenge measured at 360 min (reference value: 105 +/- 4.5 x 10^-2 mm); assay type: functional
[12] = tested on: Mus musculus; assay: Anti-inflammatory activity in Mus musculus BALB/c (mouse) assessed as carrageenan-induced paw swelling at 200 mg/kg, po administered 1 hr followed by carrageenan challenge measured at 270 min (reference value: 78 +/- 8.4 x 10^-2 mm); assay type: functional
[13] = tested on: Mus musculus; assay: Antioxidant activity in Mus musculus BALB/c (mouse) stomach assessed as TBARS level at 100 mg/kg, po (reference value: 80.4 +/- 5.4 nmol/g ); assay type: functional
[14] = tested on: Mus musculus; assay: Anti-inflammatory activity in Mus musculus BALB/c (mouse) assessed as carrageenan-induced paw swelling at 100 mg/kg, po administered 1 hr followed by carrageenan challenge measured at 180 min (reference value: 52 +/- 4.6 x 10^-2 mm); assay type: functional
[15] = tested on: Mus musculus; assay: Anti-inflammatory activity in Mus musculus BALB/c (mouse) assessed as carrageenan-induced paw swelling at 50 mg/kg, po administered 1 hr followed by carrageenan challenge measured at 90 min (reference value: 39 +/- 5.6 x 10^-2 mm); assay type: functional
[16] = tested on: Mus musculus; assay: Anti-inflammatory activity in Mus musculus BALB/c (mouse) assessed as inhibition of carrageenan-induced paw swelling at 50 mg/kg, po administered 1 hr followed by carrageenan challenge measured at 270 min relative to control; assay type: functional
[17] = tested on: Mus musculus; assay: Anti-inflammatory activity in Mus musculus BALB/c (mouse) assessed as carrageenan-induced paw swelling at 200 mg/kg, po administered 1 hr followed by carrageenan challenge measured at 180 min (reference value: 52 +/- 4.6 x 10^-2 mm); assay type: functional
[18] = tested on: Mus musculus; assay: Toxicity in Mus musculus BALB/c (mouse) assessed as mortality at 50 to 200 mg/kg, po after 72 hr; assay type: organism-based; design: dose 50-200 mg/kg, route oral; settings: in vivo
[19] = tested on: Mus musculus; assay: Anti-inflammatory activity in Mus musculus BALB/c (mouse) assessed as inhibition of carrageenan-induced paw swelling at 100 mg/kg, po administered 1 hr followed by carrageenan challenge measured at 360 min relative to control; assay type: functional
[20] = tested on: Mus musculus; assay: Analgesic activity in Mus musculus BALB/c (mouse) assessed as inhibition of acetic acid-induced writhing at 100 mg/kg, po administered 1 hr followed by acetic acid challenge measured for 10 min; assay type: functional
[21] = tested on: Mus musculus; assay: Anti-inflammatory activity in Mus musculus BALB/c (mouse) assessed as inhibition of carrageenan-induced paw swelling at 200 mg/kg, po administered 1 hr followed by carrageenan challenge measured at 270 min relative to control; assay type: functional
[22] = tested on: Mus musculus; assay: Anti-inflammatory activity in Mus musculus BALB/c (mouse) assessed as inhibition of carrageenan-induced paw swelling at 200 mg/kg, po administered 1 hr followed by carrageenan challenge measured at 180 min relative to control; assay type: functional
[23] = tested on: Mus musculus; assay: Anti-inflammatory activity in Mus musculus BALB/c (mouse) assessed as inhibition of carrageenan-induced paw swelling at 50 mg/kg, po administered 1 hr followed by carrageenan challenge measured at 180 min relative to control; assay type: functional
[24] = tested on: Mus musculus; assay: Anti-inflammatory activity in Mus musculus BALB/c (mouse) assessed as inhibition of carrageenan-induced paw swelling at 50 mg/kg, po administered 1 hr followed by carrageenan challenge measured at 90 min relative to control; assay type: functional
[25] = tested on: Mus musculus; assay: Anti-inflammatory activity in Mus musculus BALB/c (mouse) assessed as inhibition of carrageenan-induced paw swelling at 100 mg/kg, po administered 1 hr followed by carrageenan challenge measured at 270 min relative to control; assay type: functional
[26] = tested on: Mus musculus; assay: Anti-inflammatory activity in Mus musculus BALB/c (mouse) assessed as inhibition of carrageenan-induced paw swelling at 100 mg/kg, po administered 1 hr followed by carrageenan challenge measured at 90 min relative to control; assay type: functional
[27] = tested on: Mus musculus; assay: Anti-inflammatory activity in Mus musculus BALB/c (mouse) assessed as inhibition of carrageenan-induced paw swelling at 50 mg/kg, po administered 1 hr followed by carrageenan challenge measured at 360 min relative to control; assay type: functional
[28] = tested on: Mus musculus; assay: Anti-inflammatory activity in Mus musculus BALB/c (mouse) assessed as inhibition of carrageenan-induced paw swelling at 200 mg/kg, po administered 1 hr followed by carrageenan challenge measured at 360 min relative to control; assay type: functional
[29] = tested on: Mus musculus; assay: Anti-inflammatory activity in Mus musculus BALB/c (mouse) assessed as inhibition of carrageenan-induced paw swelling at 10 mg/kg, po administered 1 hr followed by carrageenan challenge measured at 90 min relative to control; assay type: functional
[30] = tested on: Mus musculus; assay: Anti-inflammatory activity in Mus musculus BALB/c (mouse) assessed as inhibition of carrageenan-induced paw swelling at 10 mg/kg, po administered 1 hr followed by carrageenan challenge measured at 360 min relative to control; assay type: functional
[31] = tested on: Mus musculus; assay: Anti-inflammatory activity in Mus musculus BALB/c (mouse) assessed as inhibition of carrageenan-induced paw swelling at 10 mg/kg, po administered 1 hr followed by carrageenan challenge measured at 180 min relative to control; assay type: functional
[32] = tested on: Mus musculus; assay: Anti-inflammatory activity in Mus musculus BALB/c (mouse) assessed as inhibition of carrageenan-induced paw swelling at 10 mg/kg, po administered 1 hr followed by carrageenan challenge measured at 270 min relative to control; assay type: functional

| Compound | Activity [1] | Activity [2] | Activity [3] | Activity [4] | Activity [5] | inhibition in vivo at 200 mg/kg [6] | Activity [7] | inhibition in vivo at 100 mg/kg [8] | Activity [9] | Activity [10] | Activity [11] | Activity [12] | Activity [13] | Activity [14] | Activity [15] | Activity [17] | Activity [18] | inhibition in vivo at 100 mg/kg [19] | inhibition in vivo at 100 mg/kg [20] | inhibition in vivo at 200 mg/kg [21] | further results |
| --- | --- | --- | --- | --- | --- | --- | --- | --- | --- | --- | --- | --- | --- | --- | --- | --- | --- | --- | --- | --- | --- |
| COc1ccc(-c2nnc(S)[nH]2)cc1 | 33.7 ×10⁻² mm | 64.8 ×10⁻² mm | 133 ×10⁻² mm | 79.5 ×10⁻² mm | 49.7 ×10⁻² mm | 16.9% | 32.4 ×10⁻² mm | 37.9% | Non-toxic | 104.5 ×10⁻² mm | 100 ×10⁻² mm | 75 ×10⁻² mm | 73.3 nmol/g | 32.3 ×10⁻² mm | 59.3 ×10⁻² mm | 53.2 ×10⁻² mm | Non-toxic |  |  |  | inhibition in vivo at 50 mg/kg [16]: 17.9% |
| CCOC(=O)c1sc2nc(CCc3cc(OC)c(OC)c(OC)c3)nn2c1C | 34.5 ×10⁻² mm | 73.8 ×10⁻² mm | 83.8 ×10⁻² mm | 63.4 ×10⁻² mm | 29 ×10⁻² mm |  | 32.4 ×10⁻² mm | 28.8% | Non-toxic | 92.9 ×10⁻² mm | 101.4 ×10⁻² mm | 60.9 ×10⁻² mm | 109.1 nmol/g | 37 ×10⁻² mm | 19.5 ×10⁻² mm | 38.9 ×10⁻² mm | Non-toxic | 20.2% | 85.9% | 21.9% | inhibition in vivo at 200 mg/kg [22]: 25.2%; inhibition in vivo at 50 mg/kg [23]: 44.2%; inhibition in vivo at 50 mg/kg [24]: 50%; inhibition in vivo at 100 mg/kg [25]: 18.7% |
| COc1cc(CCC2=NC(=S)N=N2)cc(OC)c1OC | 28 ×10⁻² mm | 74.5 ×10⁻² mm | 65.1 ×10⁻² mm | 37.3 ×10⁻² mm | 48.2 ×10⁻² mm |  | 39.7 ×10⁻² mm | 40.8% | Non-toxic | 106.7 ×10⁻² mm | 84.1 ×10⁻² mm | 70.3 ×10⁻² mm | 79.1 nmol/g | 30.8 ×10⁻² mm | 52.6 ×10⁻² mm | 50.5 ×10⁻² mm | Non-toxic | 38% |  |  | inhibition in vivo at 100 mg/kg [26]: 28.2%; inhibition in vivo at 50 mg/kg [27]: 19.9%; inhibition in vivo at 100 mg/kg [25]: 52.2% |
| CCOC(=O)Cc1csc2nc(-c3ccc(Cl)cc3)nn12 | 43.7 ×10⁻² mm | 88.5 ×10⁻² mm | 70 ×10⁻² mm | 82.5 ×10⁻² mm | 66.1 ×10⁻² mm | 25.4% | 29.1 ×10⁻² mm |  | Non-toxic | 86.7 ×10⁻² mm | 105 ×10⁻² mm | 58.6 ×10⁻² mm | 157.2 nmol/g | 52.5 ×10⁻² mm | 61 ×10⁻² mm | 37.2 ×10⁻² mm | Non-toxic | 33.3% | 38.5% | 24.9% | inhibition in vivo at 200 mg/kg [28]: 17.4%; inhibition in vivo at 200 mg/kg [22]: 28.5% |
| COc1ccc2c(c1)c(CC(=O)O)c(C)n2C(=O)c1ccc(Cl)cc1 [INDOMETHACIN] |  |  |  |  |  |  |  |  | Non-toxic |  |  |  |  |  |  |  | Non-toxic |  |  |  | inhibition in vivo at 10 mg/kg [29]: 6.9%; inhibition in vivo at 10 mg/kg [30]: 26.7%; inhibition in vivo at 10 mg/kg [31]: 56.7%; inhibition in vivo at 10 mg/kg [32]: 34.6% |
